In brackets after ≈: the same amount, converted by molar mass.
Columns and labels:
chigaya = experiment: Experiment 1 foliar application to naturally growing weeds; type: in vivo, Imperata cylindrica Beauv.; conditions: for Reproduction-inhibiting effect: 4 months
Outline: (§1)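 Test compounds, diluted to prescribed concentrations with 0.1% octylphenyl polyoxyethanol surfactant, were sprayed onto foliage of naturally growing weeds at 150 liter per 10 are. Killing index (0, no effect; 5, death) was scored at 21 days. Reproduction was scored from (-), complete suppression, to (+++), none, at 2 months for cockspar grass and 4 months for the other weeds.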

purple nutsedge = experiment: as above; type: in vivo, Cyperus rotundus L.; conditions: 4 months
Outline: as §1

water hyacinth [1] = experiment: Experiment 6 spray on aquatic plants in concrete pots; type: in vivo, Eichhornia crassipes Solms; conditions: for Reproduction-inhibiting effect: 3 months
Excerpt: (§2) The detail of the assessment made in the following Experiments of the invention was as follows:
(§3) Four months after treatment, evaluation was made for inhibition of reproduction expressed in terms of symbols ranging from (-) to (+++) where (-) means no reproduction, namely complete suppression of reproduction, (±) remarkable suppression of reproduction; (+) considerable suppression of reproduction; (++) medium supprestion of reproduction; and (+++) no suppression of reproduction.
(§4) A paddy field soil was packed in 50 cm. square concrete pots. omodaka (Sagittaria trifolia L.), urikawa (Sagittaria pygmaea Miq.), prog-bit (Hydrocharis dubia) and aginashi (Sagittaria Aginashi Makino) were transplanted; then water was poured onto the soil at 5 cm. depth.
(§5) Further, water hyacinth, greater-duckweed (Spirodela polyrhiza Schleid.) and duckweed (Lemna paucicostata Hegelm) were floated on the water.
(§6) After one month, the compounds of the invention diluted to the prescribed concentrations as indicated in Table 8 were sprayed in an amount of 100 liter per 10 are. As a surfactant, 0.1% of octylphenyl polyoxyethanol was added thereto.
(§7) The killing index (0, no effect; 5, death) after 21 days and 3 months and the reproduction-inhibiting effect (-, no reproduction; +++, maximum reproduction) after 3 months were determined.

torch azalea = experiment: Experiment 3 foliar application to naturally growing shrubs; type: in vivo, Rhododendoron Kaempferi Planch.; conditions: for Reproduction-inhibiting: after 3 months
Outline: (§8)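 Compounds, diluted to prescribed concentrations with 0.1% octylphenyl polyoxyethanol as surfactant, were sprayed onto the foliage of naturally growing shrubs at 150 liter per 10 are. Kill was scored on a 0 (no effect) to 5 (death) index at 1 and 3 months. Regrowth was graded from − (no reproduction) to +++ (maximum) at 3 months.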

white clover = experiment: Experiment 1 foliar application to naturally growing weeds; type: in vivo, Trifolium repens L.; conditions: for Reproduction-inhibiting effect: 4 months
Outline: as §1

water hyacinth [2] = experiment: Experiment 5 foliar application to water hyacinths; type: in vivo, Eichhornia crassipes Solms; conditions: 3 months
Outline: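 Two plants floated in fertilized water per vessel, sprayed foliarly with 0.1 or 0.2% aqueous compound solutions at 100 liter per 10 are plus 0.1% octylphenyl polyoxyethanol. Killing index (0 no effect to 5 death) scored at 21 days and 3 months; reproduction inhibition scored (-) to (+++) at 3 months.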

azumanezasa = experiment: Experiment 1 foliar application to naturally growing weeds; type: in vivo, Pleioblastus Chino Makino; conditions: for Reproduction-inhibiting effect: 4 months; for Killing index of Upperground parts: 21 days
Outline: as §1

manna grass = experiment: as above; type: in vivo, Digitaria adsceudes Henr.; conditions: for Reproduction-inhibiting effect: 2 months
Outline: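 Foliar spray on field weeds at 150 liter per 10 are, compounds at prescribed concentrations plus 0.1% octylphenyl polyoxyethanol. Day 21: killing index 0–5 (5 = death). Reproduction scored (-) to (+++) (- = none): cockspar grass at 2 months, chigaya, azumanezasa and warunasubi at 4 months.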

aginashi = experiment: Experiment 6 spray on aquatic plants in concrete pots; type: in vivo, Sagittaria Aginashi Makino; conditions: 3 months
Excerpt: as §2, §3, §4, §5, §6, §7

greaterduckweed = experiment: as above; type: in vivo, Spirodela polyrhiza Sohleid.; conditions: for Reproduction-inhibiting effect: 3 months
Excerpt: as §2, §3, §4, §5, §6, §7

Japanese prickly ash = experiment: Experiment 3 foliar application to naturally growing shrubs; type: in vivo, Xanthoxylum piperitum DC.
Outline: as §8

warunasubi = experiment: Experiment 1 foliar application to naturally growing weeds; type: in vivo, Solanum carolinensis L.; conditions: for Reproduction-inhibiting effect: 4 months; for Killing index of Upperground parts: 21 days
Outline: as §1

duckweed = experiment: Experiment 6 spray on aquatic plants in concrete pots; type: in vivo, Lemna paucicostata Hegelm; conditions: for Reproduction-inhibiting effect: 3 months
Excerpt: as §2, §3, §4, §5, §6, §7

Japanese bush cranberry = experiment: Experiment 3 foliar application to naturally growing shrubs; type: in vivo, Viburnum dilatatum Thunb.; conditions: after 3 months
Outline: as §8

chestnut = experiment: Experiment 2 foliar application in Japanese cypress afforested land; type: in vivo, Castanea crenata Sieb et Zucc.; conditions: 0.063%; after 30 days
Method: as §2
(§9) The compounds of the invention and other compounds listed in Table 4. were diluted to prescribed concentrations and sprayed to shrubs by foliar application in a Japanese cypress afforested land in an amount of 150 liter per 10 are.
(§10) After 30 days and 3 months, the killing index (0, no effect; 5, death) was determined.
(§11) The heights of plants were 50-70 cm. for Japanese cypress, about 50 cm. for chestnut, 50-90 cm. for miyakozasa, about 100 cm. for eulalia and 70-100 cm. for kumaichigo, respectively.

weeds and shrubs = experiment: Weeding effects, general statements; type: in vivo; conditions: as shown in Experiment 1
miyakozasa = experiment: Experiment 2 foliar application in Japanese cypress afforested land; type: in vivo, Sasa nipponica Makino et Shibata; conditions: 0.125%; after 3 months
Method: as §2, §9, §10, §11

Solubility (Table 1) = conditions: ethanol, organic solvent or mixture

CP(=O)(O)CCC(N)C(=O)O (racemic) [DL-AMPB choline]
Reproduction-inhibiting effect (chigaya; 0.05%): ++ | Reproduction-inhibiting effect (chigaya; 0.1%): - | Killing index of Upperground parts (chigaya; 0.1%, 21 days): 4.5 | Reproduction-inhibiting effect (chigaya; 0.2%): - | Reproduction-inhibiting effect (purple nutsedge; 0.05%): ++ | Reproduction-inhibiting effect (purple nutsedge; 0.1%): + | Reproduction-inhibiting effect (purple nutsedge; 0.2%): ± | Reproduction-inhibiting effect (water hyacinth [1]; 0.05%): +++ | Reproduction-inhibiting effect (water hyacinth [1]; 0.1%): ++ | Reproduction-inhibiting effect (water hyacinth [1]; 0.2%): - | Reproduction-inhibiting (torch azalea; 0.05%): ++ | Reproduction-inhibiting (torch azalea; 0.1%): - | Reproduction-inhibiting (torch azalea; 0.2%): - | Reproduction-inhibiting effect (white clover; 0.05%): ++ | Killing index of Upperground parts (white clover; 0.05%, 21 days): 1.5 | Reproduction-inhibiting effect (white clover; 0.1%): ± | Reproduction-inhibiting effect (white clover; 0.2%): - | Reproduction-inhibiting effect (water hyacinth [2]; 0.1%): + | Reproduction-inhibiting effect (water hyacinth [2]; 0.2%): - | Reproduction-inhibiting effect (azumanezasa; 0.05%): ++ | Killing index of Upperground parts (azumanezasa; 0.05%): 1.5 | Reproduction-inhibiting effect (azumanezasa; 0.1%): ± | Killing index of Upperground parts (azumanezasa; 0.1%): 3.5 | Reproduction-inhibiting effect (azumanezasa; 0.2%): - | Reproduction-inhibiting effect (manna grass; 0.05%): ++ | Reproduction-inhibiting effect (manna grass; 0.1%): ± | Reproduction-inhibiting effect (manna grass; 0.2%): - | Reproduction-inhibiting effect (aginashi; 0.05%): ++ | Reproduction-inhibiting effect (aginashi; 0.1%): ± | Reproduction-inhibiting effect (aginashi; 0.2%): - | Reproduction-inhibiting effect (greaterduckweed; 0.05%): + | Reproduction-inhibiting effect (greaterduckweed; 0.1%): - | Reproduction-inhibiting effect (greaterduckweed; 0.2%): - | Reproduction-inhibiting (Japanese prickly ash; 0.05%, after 3 months): ++ | Reproduction-inhibiting (Japanese prickly ash; 0.1%, after 3 months): + | Reproduction-inhibiting (Japanese prickly ash; 0.2%, after 3 months): - | Reproduction-inhibiting effect (warunasubi; 0.05%): ++ | Reproduction-inhibiting effect (warunasubi; 0.1%): ± | Killing index of Upperground parts (warunasubi; 0.1%): 4.5 | Reproduction-inhibiting effect (warunasubi; 0.2%): - | Reproduction-inhibiting effect (duckweed; 0.05%): + | Reproduction-inhibiting effect (duckweed; 0.1%): - | Reproduction-inhibiting effect (duckweed; 0.2%): - | Reproduction-inhibiting (Japanese bush cranberry; 0.05%): +++ | Reproduction-inhibiting (Japanese bush cranberry; 0.1%): ++ | Reproduction-inhibiting (Japanese bush cranberry; 0.2%): +

CP(=O)(O)CC[C@H](N)C(=O)O [L-AMPB choline, L-2-Amino-4-methylphosphino-butanoic acid choline]
Reproduction-inhibiting effect (chigaya; 0.05%): - | Reproduction-inhibiting effect (chigaya; 0.1%): - | Reproduction-inhibiting effect (chigaya; 0.2%): - | Reproduction-inhibiting effect (purple nutsedge; 0.05%): + | Reproduction-inhibiting effect (purple nutsedge; 0.1%): ± | Reproduction-inhibiting effect (purple nutsedge; 0.2%): - | Reproduction-inhibiting effect (water hyacinth [1]; 0.05%): ++ | Reproduction-inhibiting effect (water hyacinth [1]; 0.1%): - | Reproduction-inhibiting effect (water hyacinth [1]; 0.2%): - | Reproduction-inhibiting (torch azalea; 0.05%): - | Reproduction-inhibiting (torch azalea; 0.1%): - | Reproduction-inhibiting (torch azalea; 0.2%): - | Reproduction-inhibiting effect (white clover; 0.05%): ± | Reproduction-inhibiting effect (white clover; 0.1%): - | Reproduction-inhibiting effect (white clover; 0.2%): - | Reproduction-inhibiting effect (water hyacinth [2]; 0.1%): - | Reproduction-inhibiting effect (water hyacinth [2]; 0.2%): - | Reproduction-inhibiting effect (azumanezasa; 0.05%): ± | Reproduction-inhibiting effect (azumanezasa; 0.1%): - | Reproduction-inhibiting effect (azumanezasa; 0.2%): - | Reproduction-inhibiting effect (manna grass; 0.05%): ± | Reproduction-inhibiting effect (manna grass; 0.1%): - | Reproduction-inhibiting effect (manna grass; 0.2%): - | Killing index (chestnut): 3.5 | Reproduction-inhibiting effect (aginashi; 0.05%): ± | Reproduction-inhibiting effect (aginashi; 0.1%): - | Reproduction-inhibiting effect (aginashi; 0.2%): - | effectiveness relative to monosodium or monodiethylammonium salts of L-2-amino-4-methylphosphinobutanoic acid (weeds and shrubs): twice effective | Reproduction-inhibiting effect (greaterduckweed; 0.05%): - | Reproduction-inhibiting effect (greaterduckweed; 0.1%): - | Reproduction-inhibiting effect (greaterduckweed; 0.2%): - | Killing index (Japanese prickly ash; 0.05%, after 3 months): 4.5 | Reproduction-inhibiting (Japanese prickly ash; 0.05%, after 3 months): ± | Killing index (Japanese prickly ash; 0.05%, after 30 days): 4.5 | Reproduction-inhibiting (Japanese prickly ash; 0.1%, after 3 months): - | Reproduction-inhibiting (Japanese prickly ash; 0.2%, after 3 months): - | Reproduction-inhibiting effect (warunasubi; 0.05%): ± | Reproduction-inhibiting effect (warunasubi; 0.1%): - | Reproduction-inhibiting effect (warunasubi; 0.2%): - | Reproduction-inhibiting effect (duckweed; 0.05%): - | Reproduction-inhibiting effect (duckweed; 0.1%): - | Reproduction-inhibiting effect (duckweed; 0.2%): - | Reproduction-inhibiting (Japanese bush cranberry; 0.05%): + | Reproduction-inhibiting (Japanese bush cranberry; 0.1%): - | Reproduction-inhibiting (Japanese bush cranberry; 0.2%): -

C[C@H](NC(=O)[C@H](C)NC(=O)[C@@H](N)CCP(C)(=O)O)C(=O)O [SF-1293 choline, (L-2-Amino-4-methylphosphinobutyryl)-L-alanyl-L-alanine choline]
Reproduction-inhibiting effect (chigaya; 0.05%): + | Reproduction-inhibiting effect (chigaya; 0.1%): - | Reproduction-inhibiting effect (chigaya; 0.2%): - | Reproduction-inhibiting effect (purple nutsedge; 0.05%): ++ | Reproduction-inhibiting effect (purple nutsedge; 0.1%): + | Reproduction-inhibiting effect (purple nutsedge; 0.2%): ± | Reproduction-inhibiting effect (water hyacinth [1]; 0.05%): ++ | Reproduction-inhibiting effect (water hyacinth [1]; 0.1%): - | Killing index (water hyacinth [1]; 0.1%, 21 days): 4.5 | Reproduction-inhibiting effect (water hyacinth [1]; 0.2%): - | Reproduction-inhibiting (torch azalea; 0.05%): ++ | Reproduction-inhibiting (torch azalea; 0.1%): - | Killing index (torch azalea; 0.1%, after 30 days): 4.5 | Reproduction-inhibiting (torch azalea; 0.2%): - | Reproduction-inhibiting effect (white clover; 0.05%): + | Reproduction-inhibiting effect (white clover; 0.1%): - | Reproduction-inhibiting effect (white clover; 0.2%): - | Killing index (miyakozasa): 4.5 | Reproduction-inhibiting effect (water hyacinth [2]; 0.1%): ± | Reproduction-inhibiting effect (water hyacinth [2]; 0.2%): - | Reproduction-inhibiting effect (azumanezasa; 0.05%): + | Reproduction-inhibiting effect (azumanezasa; 0.1%): - | Reproduction-inhibiting effect (azumanezasa; 0.2%): - | Reproduction-inhibiting effect (manna grass; 0.05%): + | Reproduction-inhibiting effect (manna grass; 0.1%): ± | Killing index of Upperground parts (manna grass; 0.1%, 21 days): 4.5 | Reproduction-inhibiting effect (manna grass; 0.2%): - | Reproduction-inhibiting effect (aginashi; 0.05%): ++ | Reproduction-inhibiting effect (aginashi; 0.1%): ± | Reproduction-inhibiting effect (aginashi; 0.2%): - | solubility (Solubility (Table 1)): 310 mg/mL (≈ 959 mM) | Reproduction-inhibiting effect (greaterduckweed; 0.05%): + | Reproduction-inhibiting effect (greaterduckweed; 0.1%): - | Killing index (greaterduckweed; 0.1%, 21 days): 4.5 | Reproduction-inhibiting effect (greaterduckweed; 0.2%): - | Reproduction-inhibiting (Japanese prickly ash; 0.05%, after 3 months): ++ | Killing index (Japanese prickly ash; 0.1%, after 3 months): 4.5 | Reproduction-inhibiting (Japanese prickly ash; 0.1%, after 3 months): ± | Reproduction-inhibiting (Japanese prickly ash; 0.2%, after 3 months): - | Reproduction-inhibiting effect (warunasubi; 0.05%): ++ | Killing index of Upperground parts (warunasubi; 0.05%): 3.5 | Reproduction-inhibiting effect (warunasubi; 0.1%): ± | Reproduction-inhibiting effect (warunasubi; 0.2%): - | Reproduction-inhibiting effect (duckweed; 0.05%): + | Reproduction-inhibiting effect (duckweed; 0.1%): - | Killing index (duckweed; 0.1%, 21 days): 4.5 | Reproduction-inhibiting effect (duckweed; 0.2%): - | Reproduction-inhibiting (Japanese bush cranberry; 0.05%): ++ | Reproduction-inhibiting (Japanese bush cranberry; 0.1%): - | Reproduction-inhibiting (Japanese bush cranberry; 0.2%): -
